# Square brackets hold non-standard residues; d marks the D form. Peptide text beside a SMILES is read from it. * marks the point of attachment. Tyr(3-Cl) = N[C@@H](Cc1ccc(O)c(Cl)c1)C(=O)O; Phe(4-CN) = N#Cc1ccc(C[C@H](N)C(=O)O)cc1; Dmt = Cc1cc(O)cc(C)c1C[C@H](N)C(=O)O; Tyr(BN∗,3-Cl) = not defined here; Hexanoyl = CCCCCC(=O)*; Pentanoyl = CCCCC(=O)*
# Columns and labels:
# [1] = target: T1, human ORL1 (Homo sapiens, UniProt P41146); assay: Stimulation of [35S]GTPγS binding in membranes of CHO cells transfected with human ORL-1; assay type: biochemical; conditions: for agonist/antagonist character at ORL1: in words; for Emax: read-out: % Stimulation ± SEM of [35S]GTPγS binding
# T1 construct: expressed in transfected cells; host or cells: CHO cells (G418-selected)
# T1 sequence (P41146 whole entry): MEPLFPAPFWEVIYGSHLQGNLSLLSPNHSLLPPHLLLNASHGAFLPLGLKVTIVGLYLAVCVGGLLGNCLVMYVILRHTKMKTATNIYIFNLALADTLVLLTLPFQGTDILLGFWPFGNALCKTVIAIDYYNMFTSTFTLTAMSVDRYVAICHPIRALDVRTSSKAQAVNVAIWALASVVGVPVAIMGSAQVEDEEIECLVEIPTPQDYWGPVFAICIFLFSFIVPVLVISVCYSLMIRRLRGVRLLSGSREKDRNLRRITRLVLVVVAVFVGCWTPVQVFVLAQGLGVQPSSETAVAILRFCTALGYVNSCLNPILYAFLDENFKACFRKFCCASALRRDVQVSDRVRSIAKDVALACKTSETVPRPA
# Method: First, CHO cells transfected with human ORL-1 are scraped from tissue culture dishes into 20 mM HEPES, 1 mM EDTA, and then centrifuged at 500×g for 10 minutes. The cells are then re-suspended in this buffer and homogenized using a Polytron Homogenizer.
# The cellular homogenate is next centrifuged at 20,000×g for 20 minutes. Following this, the resulting pellet is re-suspended in a buffer containing 20 mM HEPES, 10 mM MgCl2, and 100 mM NaCl, having a resulting pH of 7.4. The suspension is then re-centrifuged at 20,000×g and suspended once more in the above-listed buffer. The pellet may be frozen at −70° C. prior to the final centrifugation. For the binding assay, membranes (10-20 μg protein) are incubated with [^35S]GTPγγS (50 pM), GDP (usually 10 μM), and the desired compound. The total volume of the mixture is 1 ml, which is incubated for 60 min at 25° C.
# Following incubation, samples are filtered over glass fiber filters and counted. […]
# In these [^35S]GTPγS assays, binding was conducted as described above. EC50 values and percent stimulation were determined using the program Prism.
# [2] = In vivo test for analgesic activity and potentiation of morphine analgesia
# [3] = target: T1, human ORL1; assay: Antagonism of nociceptin-stimulated [35S]GTPγS binding (inhibition, Schild analysis); assay type: biochemical
# [4] = target: T1, human ORL1; assay: [3H]nociceptin binding to membranes of CHO cells transfected with human ORL1; conditions: for Hill Coefficient: Table 5
# [5] = system: mice; assay: Tail flick assay, peptide alone, intracerebroventricular injection
# [6] = system: mice; assay: Tail flick assay, peptide combined with morphine and/or N/OFQ (morphine-induced analgesia); assay type: in vivo
# Method: The modified Boniferroni Test was used for these planned comparisons (p value was set at P<0.036). Doses were determined based on the potency of the compounds tested.
# The antagonist was next assayed for the ability to reverse the inhibition of morphine-induced analgesia. In this assay, the control received morphine alone, while test animals received morphine +3 nmol of the antagonist, morphine +10 nmol of the antagonist. […] For each of these animals, response was measured at 5, 10, and 20 minutes after intracerebroventricular injection.
# The agonist VII-87-B was further investigated by evaluating its ability to reverse morphine-induced analgesia. In this assay, the control animal received 10 nmols of morphine alone, while test animals received morphine +0.1 nmol of the agonist, morphine +1.0 nmol of the agonist, or morphine +10.0 nmol of the agonist. For each of these animals, response was measured at 5, 10, and 20 minutes after intracerebroventricular injection.
# The agonist VII-39-D was then further investigated by evaluating its ability to reverse morphine-induced analgesia. In this assay, the control animal received 10 nmols of morphine alone, while test animals received morphine +0.1 nmol of the agonist, morphine +1.0 nmol of the agonist, or morphine +10.0 nmol of the agonist. For each of these animals, response was measured at 5, 10, and 20 minutes after intracerebroventricular injection.
compound,measurement,setting,value
"CCCCCC(=O)N[C@@H](CCCNC(=N)N)C(=O)N[C@@H](Cc1ccc(O)cc1)C(=O)N[C@@H](Cc1ccc(O)cc1)C(=O)N[C@@H](CCCNC(=N)N)C(=O)N[C@@H](Cc1c[nH]c2ccccc12)C(=O)N[C@@H](CCCNC(=N)N)C(N)=O [IV-17-C, Hexanoyl-RYYRWR-NH2] (Hexanoyl-RYYRWR-NH2)",[35S]GTPγS Binding Percent Stimulation,"[1]; Table 1, relative to nociceptin",18%
same,agonist/antagonist character at ORL1,[1],very low efficacy compound
same,analgesic activity and potentiation of morphine analgesia in vivo,[2],no measurable in vivo activity
same,potency as antagonist relative to N^1-Phe-nociceptin (1-13)NH2,[3]; FIG. 2,at least 10 times
same,stimulation of [35S]GTPγS binding remaining,"[3]; at 1 and 10 μM, with 10 nM nociceptin",20%
same,IC50,[4],2.6 nM
"CC(=O)N[C@@H](CCCNC(=N)N)C(=O)N[C@@H](Cc1ccc(O)c(Cl)c1)C(=O)N[C@@H](Cc1ccc(O)cc1)C(=O)N[C@@H](CCCNC(=N)N)C(=O)N[C@@H](Cc1c[nH]c2ccccc12)C(=O)N[C@@H](CCCNC(=N)N)C(N)=O [VII-87-B, Ac-Arg-Tyr(3-Cl)-Tyr-Arg-Trp-Arg-NH2] (Ac-R[Tyr(3-Cl)]YRWR-NH2)",agonist/antagonist character at ORL1,[1],agonist
same,Emax,[1],72%
same,effect on nociception (% antinociception),"[5]; 10 nmol icv, 5, 10 and 20 minutes post-injection",induced pro-nociception
same,reversal of morphine-induced analgesia,"[6]; morphine 10 nmol + 0.1, 1.0, 10.0 nmol agonist icv, at 10 and 20 minutes with 10 nmol",dose-dependent reversal of morphine-induced analgesia
"CCCCC(=O)N[C@@H](CCCNC(=N)N)C(=O)N[C@@H](Cc1ccc(O)cc1)C(=O)N[C@@H](Cc1ccc(O)cc1)C(=O)N[C@@H](CCCNC(=N)N)C(=O)N[C@@H](Cc1c[nH]c2ccccc12)C(=O)N[C@@H](CCCNC(=N)N)C(N)=O [VII-7-B, Pentanoyl-Arg-Tyr-Tyr-Arg-Trp-Arg-NH2] (Pentanoyl-RYYRWR-NH2)","EC50 ± SEM, stimulation of [35S]GTPγS binding",[1]; Table 6,FLAT
same,agonist/antagonist character at ORL1,[1],very potent antagonist
same,Emax,[1],< 20%
same,analgesic effect (% antinociception),"[5]; 10.0 and 30.0 nmol icv, 10 and 20 minutes post-injection",showed analgesic properties
same,shift of nociceptin dose response curve,[3]; FIG. 9,dose-dependent parallel shift
same,"pA2, Schild analysis",[3]; nociceptin dose response curve,8.99±0.05
same,"slope, Schild analysis",[3]; nociceptin dose response curve,−1.02
same,effect on morphine-induced analgesia,"[6]; 10 nmol alone or with N/OFQ, 5 minutes post-injection",reduction in morphine-induced analgesia
same,effect on nociceptin action on morphine analgesia,[6]; 10 and 20 minutes post injection,did not alter the effects of nociceptin
same,reversal of nociceptin's inhibition of morphine-induced analgesia,"[6]; morphine + nociceptin + 3 or 10 nmol antagonist icv, FIG. 11",did not reverse the inhibition of morphine-induced analgesia
same,Hill Coefficient,[4],0.8
"Ac-Arg-Tyr(BN*, 3-Cl)-Tyr-Arg-Trp-Arg-NH2 (Ac-R[Tyr(BN∗,3-Cl)]YRWR-NH2; reading uncertain; also: printed as Ac-Arg-Tyr(BN*, 3-Cl)-Tyr-Arg-Trp-Arg-NH2) [VII-39-D]",agonist/antagonist character at ORL1,[1],full agonist
same,effect on nociception (% antinociception),"[5]; 0.1, 1.0 or 10.0 nmol icv, 5, 10 and 20 minutes post-injection",did not induce anti- or pro-nociception
same,effect on morphine-induced analgesia,"[6]; morphine 10 nmol + 1.0 and 10 nmol agonist icv, 5, 10 and 20 minutes",attenuation of morphine-induced analgesia
same,Hill Coefficient,[4],1.03
"CC(=O)N[C@@H](CCCNC(=N)N)C(=O)N[C@@H](Cc1ccc(C#N)cc1)C(=O)N[C@@H](Cc1ccc(O)cc1)C(=O)N[C@@H](CCCNC(=N)N)C(=O)N[C@@H](Cc1c[nH]c2ccccc12)C(=O)N[C@@H](CCCNC(=N)N)C(N)=O [VII-43-C, Ac-Arg-Phe(4-CN)-Tyr-Arg-Trp-Arg-NH2] (Ac-R[Phe(4-CN)]YRWR-NH2)",agonist/antagonist character at ORL1,[1],partial agonist
same,Emax,[1],49.7 ± 6.6%
same,Hill Coefficient,[4],0.73
"CC(=O)N[C@@H](CCCNC(=N)N)C(=O)N[C@@H](Cc1ccc(O)cc1)C(=O)N[C@@H](Cc1c(C)cc(O)cc1C)C(=O)N[C@@H](CCCNC(=N)N)C(=O)N[C@@H](Cc1c[nH]c2ccccc12)C(=O)N[C@@H](CCCNC(=N)N)C(N)=O [VII-73-A, Ac-Arg-Tyr-Tyr(2,6-di-Me)-Arg-Trp-Arg-NH2] (Ac-RY[Dmt]RWR-NH2)",Emax,[1],52.7 ± 0.175%
same,Hill Coefficient,[4],0.95

# From patent publication US7863416B2, “Nociceptin-based analgesics” (Synvax, Inc., priority 2001, dated 2011)
